Test results reported in patent publication US8314121B2, “Imidazolone derivatives, preparation thereof as drugs, pharmaceutical compositions, and use thereof as protein kinase inhibitors, in particular CDC7” (Sanofi, priority 2006, dated 2012).

Row | SMILES | melting point [°C]
1 | O=C1NC(N2CCCCCC2)=N/C1=C\c1c[nH]c2ncc(-c3ccccc3)cc12 [Example 42, (5Z)-2-azepan-1-yl-5-[(5-phenyl-1H-pyrrolo[2,3-b]pyridin-3-yl)methylidene]-3,5-dihydro-4H-imidazol-4-one] | 302
2 | CC(C)CC1=N/C(=C\c2c[nH]c3ncc(Cl)cc23)C(=O)N1C [Example 76, (5Z)-5-[(5-chloro-1H-pyrrolo[2,3-b]pyridin-3-yl)methylidene]-3-methyl-2-(2-methylpropyl)-3,5-dihydro-4H-imidazol-4-one] | 282
3 | Cc1cnc2[nH]cc(/C=C3\N=C(NCC(C)C)NC3=O)c2c1 [Example 44, (5Z)-2-[(2-methylpropyl)amino]-5-[(5-methyl-1H-pyrrolo[2,3-b]pyridin-3-yl)methylidene]-3,5-dihydro-4H-imidazol-4-one] | 338 to 339
4 | CN(Cc1ccccn1)C1=N/C(=C\c2c[nH]c3ncc(Cl)cc23)C(=O)N1 [Example 96, (5Z)-5-[(5-chloro-1H-pyrrolo[2,3-b]pyridin-3-yl)methylidene]-2-[methyl(pyridin-2-ylmethyl)amino]-3,5-dihydro-4H-imidazol-4-one] | 350
5 | CC(C)CNC1=N/C(=C\c2c[nH]c3ncc(Cl)cc23)C(=O)N1 [Example 29, (5Z)-5-[(5-chloro-1H-pyrrolo[2,3-b]pyridin-3-yl)methylidene]-2-[(2-methylpropyl)amino]-3,5-dihydro-4H-imidazol-4-one] | 325 to 330
6 | CSC1=N/C(=C\c2c[nH]c3ncc(Cl)cc23)C(=O)N1 [Example 60, (5Z)-5-[(5-chloro-1H-pyrrolo[2,3-b]pyridin-3-yl)methylidene]-2-(methylsulphanyl)-3,5-dihydro-4H-imidazol-4-one] | > 410
7 | O=C1NC(C2CCOCC2)=N/C1=C\c1c[nH]c2ncccc12 [Example 71, (5Z)-5-(1H-pyrrolo[2,3-b]pyridin-3-ylmethylidene)-2-(tetrahydro-2H-pyran-4-yl)-3,5-dihydro-4H-imidazol-4-one] | 317 to 319
8 | CCCCC1=N/C(=C\c2c[nH]c3ncccc23)C(=O)N1C [Example 66, (5Z)-2-butyl-3-methyl-5-(1H-pyrrolo[2,3-b]pyridin-3-ylmethylidene)-3,5-dihydro-4H-imidazol-4-one] | 220 to 222
9 | CCCCC1=N/C(=C\c2c[nH]c3nc(Cl)ccc23)C(=O)N1 [Example 65, (5Z)-2-butyl-5-[(6-chloro-1H-pyrrolo[2,3-b]pyridin-3-yl)methylidene]-3,5-dihydro-4H-imidazol-4-one] | 318 to 321
10 | O=C1NC(N2CCCCC2)=N/C1=C\c1c[nH]c2ncc(-c3ccccc3)cc12 [Example 40, (5Z)-5-[(5-phenyl-1H-pyrrolo[2,3-b]pyridin-3-yl)methylidene]-2-piperidin-1-yl-3,5-dihydro-4H-imidazol-4-one] | 307
11 | COC1=N/C(=C\c2c[nH]c3ncc(Cl)cc23)C(=O)N1c1ccccc1 [Example 98, (5Z)-5-[1-(5-chloro-1H-pyrrolo[2,3-b]pyridin-3-yl)-methylidene]-2-methoxy-3-phenyl-3,5-dihydro-4H-imidazol-4-one] | 227.5
12 | Cc1cnc2[nH]cc(/C=C3\N=C(N4CCN(c5ccccc5)CC4)NC3=O)c2c1 [Example 46, (5Z)-5-[(5-methyl-1H-pyrrolo[2,3-b]pyridin-3-yl)methylidene]-2-(4-phenylpiperazin-1-yl)-3,5-dihydro-4H-imidazol-4-one] | 331 to 332
13 | CCCSC1=N/C(=C\c2c[nH]c3ncc(Cl)cc23)C(=O)N1 [Example 62, (5Z)-5-[(5-chloro-1H-pyrrolo[2,3-b]pyridin-3-yl)methylidene]-2-(propylsulphanyl)-3,5-dihydro-4H-imidazol-4-one] | 316 to 318
14 | CC(C)C1=N/C(=C\c2c[nH]c3ncccc23)C(=O)N1 [Example 79, (5Z)-2-(1-methylethyl)-5-(1H-pyrrolo[2,3-b]pyridin-3-ylmethylidene)-3,5-dihydro-4H-imidazol-4-one] | 309 to 310
15 | O=C1NC(CC2CC2)=N/C1=C\c1c[nH]c2ncccc12 [Example 77, (5Z)-2-(cyclopropylmethyl)-5-(1H-pyrrolo[2,3-b]pyridin-3-ylmethylidene)-3,5-dihydro-4H-imidazol-4-one] | 289
16 | CC(C)C1=N/C(=C\c2c[nH]c3ncc(Cl)cc23)C(=O)N1 [Example 80, (5Z)-2-(1-methylethyl)-5-(5-chloro-1H-pyrrolo[2,3-b]pyridin-3-ylmethylidene)-3,5-dihydro-4H-imidazol-4-one] | 277 to 280
17 | O=C1NC(=S)N/C1=C\c1c[nH]c2ncc(-c3ccccc3)cc12 [Example 16, (5Z)-5-[(5-phenyl-1H-pyrrolo[2,3-b]pyridin-3-yl)methylene]-2-thioxoimidazolidin-4-one] | 265 to 270
18 | CC(C)CC1=N/C(=C\c2c[nH]c3ncccc23)C(=O)N1 [Example 74, (5Z)-2-(2-methylpropyl)-5-(1H-pyrrolo[2,3-b]pyridin-3-ylmethylidene)-3,5-dihydro-4H-imidazol-4-one] | 292 to 293
19 | O=C1NC(N2CCCC2)=N/C1=C\c1c[nH]c2ncc(Cl)cc12 [Example 27, (5Z)-5-[(5-chloro-1H-pyrrolo[2,3-b]pyridin-3-yl)methylidene]-2-pyrrolidin-1-yl-3,5-dihydro-4H-imidazol-4-one] | 350 to 360
20 | O=C1NC(NCC2CC2)=N/C1=C\c1c[nH]c2ncc(C(F)(F)F)cc12 [Example 48, (5Z)-2-[(cyclopropylmethyl)amino]-5-{[5-(trifluoromethyl)-1H-pyrrolo[2,3-b]pyridin-3-yl]methylidene}-3,5-dihydro-4H-imidazol-4-one] | 350
21 | COCCN(C)C1=N/C(=C\c2c[nH]c3ncc(Cl)cc23)C(=O)N1 [Example 95, (5Z)-5-[(5-chloro-1H-pyrrolo[2,3-b]pyridin-3-yl)methylidene]-2-[(2-methoxyethyl)(methyl)amino]-3,5-dihydro-4H-imidazol-4-one] | 281
22 | Cc1cnc2[nH]cc(/C=C3\N=C(NCC4CC4)NC3=O)c2c1 [Example 43, (5Z)-2-[(cyclopropylmethyl)amino]-5-[(5-methyl-1H-pyrrolo[2,3-b]pyridin-3-yl)methylidene]-3,5-dihydro-4H-imidazol-4-one] | 319 to 320
23 | O=C1NC(NCC2CC2)=N/C1=C\c1c[nH]c2ncc(N3CCOCC3)cc12 [Example 51, (5Z)-2-[(cyclopropylmethyl)amino]-5-[(5-morpholin-4-yl-1H-pyrrolo[2,3-b]pyridin-3-yl)methylidene]-3,5-dihydro-4H-imidazol-4-one] | 331
24 | Cc1cnc2[nH]cc(/C=C3\N=C(N4CCCCC4)NC3=O)c2c1 [Example 45, (5Z)-5-[(5-methyl-1H-pyrrolo[2,3-b]pyridin-3-yl)methylidene]-2-piperidin-1-yl-3,5-dihydro-4H-imidazol-4-one] | 320 to 321
